Measurements published in the CombiSolv-Exp solvation set (Vermeire and Green 2021).

Assay: solvent given as SMILES

CCO
Conditions	solvation free energy, 298 K [kcal/mol]
in Brc1ccccc1	-3.13
in C1CCCCC1	-2.32
in C1CCOC1	-4.51
in C1COCCO1	-4.36
in C=CCCCCCCC	-2.34
in CC1COC(=O)O1	-4.2
in CC#N	-4.38
in CC(=O)N(C)C	-5.24
in CC(=O)O	-5.22
in CC(=O)c1ccccc1	-4.04
in CC(C)(C)O	-5.05
in CC(C)=O	-4.54
in CC(C)CC(C)(C)C	-2.36
in CC(C)CCCC(C)CCCC(C)CCCCC(C)CCCC(C)CCCC(C)C	-2.01
in CC(C)CCO	-4.8
in CC(C)CO	-4.79
in CC(C)O	-4.94
in CC(C)OC(C)C	-3.77
in CC(Cl)Cl	-3.56
in CCC(C)=O	-4.36
in CCCC#N	-4.1
in CCCCC(CC)COC(=O)CCCCC(=O)OCC(CC)CCCC	-3.37
in CCCCCCC	-2.2
in CCCCCCCC	-2.14
in CCCCCCCCC=CCCCCCCCC(=O)OCC(COC(=O)CCCCCCCC=CCCCCCCCC)OC(=O)CCCCCCCC=CCCCCCCCC	-3.22
in CCCCCCCCCC	-2.25
in CCCCCCCCCCCCCCCC	-1.97
in CCCCCCCCCCO	-4.1
in CCCCCCCCCOC(=O)c1ccccc1C(=O)OCCCCCCCCC	-3.26
in CCCCCCCCO	-4.43
in CCCCCO	-4.65
in CCCCCl	-3.07
in CCCCN(C=O)CCCC	-4.53
in CCCCO	-4.9
in CCCCOCCCC	-3.32
in CCCO	-4.91
in CCCOCCC	-3.45
in CCN(CC)C(C)=O	-5.06
in CCN(CC)CC	-4.02
in CCNC(C)=O	-4.95
in CCNC=O	-4.9
in CCOC(=O)c1ccccc1C(=O)OCC	-3.54
in CCOC(C)=O	-4.13
in CCOCC	-4.42
in CCOCCO	-4.56
in CCOCCOCCOCC	-4.21
in CCOP(=O)(OCC)OCC	-4.76
in CCOc1ccccc1	-3.36
in CN1CCCC1=O	-5.09
in CN1CCCCC1=O	-5.13
in CN1CCN(C)C1=O	-4.92
in CN(C)C=O	-5.1
in CN(C)P(=O)(N(C)C)N(C)C	-6.13
in CNC(C)=O	-4.98
in CNC=O	-4.96
in CO	-5.28
in COC(C)(C)C	-3.94
in COC(C)=O	-4.11
in COCCO	-4.79
in COP(=O)(OC)OC	-4.98
in COc1ccccc1	-3.52
in CS(C)=O	-5.24
in Cc1ccc(C)cc1	-3.12
in Cc1cccc(C)c1	-3
in Cc1cccc(C)n1	-4.87
in Cc1cccc(O)c1	-5.53
in Cc1ccccc1	-3.22
in Cc1ccccn1	-4.97
in ClC(Cl)(Cl)Cl	-2.97
in ClC(Cl)Cl	-3.96
in ClCCl	-3.75
in Clc1ccccc1	-3.18
in FC(F)(F)C(F)(F)C(F)(F)C(F)(F)C(F)(F)C(F)(F)F	-1.55
in Fc1c(F)c(F)c(F)c(F)c1F	-2.79
in Fc1ccccc1	-3.32
in ICI	-2.83
in Ic1ccccc1	-3.04
in NC=O	-4.84
in Nc1ccccc1	-4.38
in O	-5.01
in O=C1CCCCC1	-4.34
in O=C1CCCO1	-4.44
in O=CN1CCOCC1	-4.53
in OCC(O)CO	-4.32
in OCCO	-4.71
in OCCOCCO	-4.56
in OCCOCCOCCO	-4.17
in OCc1ccccc1	-4.79
in S=C=S	-2.71
in [2H]O[2H]	-5.08
in c1ccc2ncccc2c1	-4.53
in c1ccc(COCc2ccccc2)cc1	-3.38
in c1ccccc1	-3.28
in c1ccncc1	-5.05

CCCCC
Conditions	solvation free energy, 298 K [kcal/mol]
in BrC(Br)C(Br)Br	-2.06
in Brc1ccccc1	-2.95
in C1=Cc2ccccc2C1	-2.75
in C1CCCCC1	-3.34
in C1CCOC1	-3.22
in C1COCCO1	-2.6
in C=CCCCC	-3.34
in C=CCCCCCC	-3.24
in C=CCCCCCCCC	-3.16
in C=CCCCCCCCCCCCCCC	-2.88
in CC1COC(=O)O1	-1.59
in CC#N	-2.15
in CC(=O)CC(C)C	-2.86
in CC(=O)N(C)C	-2.29
in CC(=O)O	-2.36
in CC(=O)c1ccccc1	-2.43
in CC(C)=O	-2.73
in CC(C)CC(C)(C)C	-3.24
in CC(C)CCCC(C)CCCC(C)CCCCC(C)CCCC(C)CCCC(C)C	-2.8
in CC(C)CCO	-2.82
in CC(C)O	-2.6
in CC(C)OC(C)C	-3.35
in CCBr	-3.45
in CCC#N	-2.59
in CCC(C)=O	-2.82
in CCC(C)O	-2.65
in CCCC#N	-2.48
in CCCC(=O)OCC	-3
in CCCC(C)=O	-2.89
in CCCCC(CC)COC(=O)CCCCC(=O)OCC(CC)CCCC	-2.65
in CCCCC(CC)COC(=O)c1ccccc1C(=O)OCC(CC)CCCC	-2.47
in CCCCCC	-3.36
in CCCCCC(C)=O	-2.92
in CCCCCCC	-3.27
in CCCCCCCC	-3.24
in CCCCCCCCC	-3.18
in CCCCCCCCC=CCCCCCCCC(=O)OCC(COC(=O)CCCCCCCC=CCCCCCCCC)OC(=O)CCCCCCCC=CCCCCCCCC	-2.77
in CCCCCCCCCC	-3.16
in CCCCCCCCCCCC	-3.05
in CCCCCCCCCCCCCC	-2.9
in CCCCCCCCCCCCCCCC	-2.93
in CCCCCCCCCOC(=O)c1ccccc1C(=O)OCCCCCCCCC	-2.55
in CCCCCCCCN(CCCCCCCC)CCCCCCCC	-2.81
in CCCCCCCCO	-2.7
in CCCCCCCO	-2.66
in CCCCCCO	-2.68
in CCCCCCOC(C)=O	-2.96
in CCCCCN(CCCCC)CCCCC	-2.98
in CCCCCO	-2.65
in CCCCCl	-3.22
in CCCCN(C=O)CCCC	-2.59
in CCCCN(CCCC)CCCC	-2.9
in CCCCO	-2.7
in CCCCOC(=O)c1ccccc1C(=O)OCCCC	-2.59
in CCCCOC(C)=O	-2.94
in CCCCOCCCC	-3.19
in CCCO	-2.58
in CCN1CCCC1=O	-2.25
in CCN(CC)C(C)=O	-2.48
in CCN(CC)CC	-3.31
in CCNC(C)=O	-2.35
in CCNC=O	-2.11
in CCO	-2.51
in CCOC(=O)c1ccccc1C(=O)OCC	-2.11
in CCOC(C)=O	-2.85
in CCOCC	-3.3
in CCOCCOCCOCC	-2.79
in CCOc1ccccc1	-2.82
in CN1CCCC1=O	-2.18
in CN1CCCCC1=O	-2.16
in CN1CCN(C)C1=O	-1.88
in CN(C)C=O	-2.18
in CN(C)P(=O)(N(C)C)N(C)C	-2.39
in CNC(C)=O	-2.17
in CNC=O	-1.87
in CO	-2.29
in COC(C)=O	-2.66
in COCCO	-2.16
in COCCOCCOCCOCCOC	-2.2
in COc1ccccc1	-2.76
in CS(C)=O	-1.41
in Cc1ccc(C)cc1	-3.16
in Cc1cccc2ccccc12	-2.63
in Cc1cccc(C)c1	-3.11
in Cc1cccc(O)c1	-2.28
in Cc1ccccc1	-3.15
in Cc1ccccn1	-2.82
in ClC(Cl)(Cl)Cl	-3.32
in ClC(Cl)C(Cl)Cl	-2.77
in ClC(Cl)Cl	-3.23
in ClCCCl	-2.77
in ClCCl	-3.07
in Clc1cccc2ccccc12	-2.5
in Clc1ccccc1	-3.14
in FC(F)(F)C(F)(F)C(F)(F)C(F)(F)C(F)(F)C(F)(F)C(F)(F)C(F)(F)F	-2.06
in FC(F)(F)C(F)(F)C(F)(F)C(F)(F)C(F)(F)C(F)(F)F	-2.15
in Fc1ccccc1	-3.25
in ICI	-1.67
in Ic1ccccc1	-2.61
in N#CCCCCC#N	-1.32
in N#CCc1ccccc1	-1.99
in N#Cc1ccccc1	-2.48
in NC=O	-0.44
in NCCO	-0.27
in Nc1ccccc1	-1.89
in O=C1CCCCC1	-2.73
in O=C1CCCO1	-1.72
in O=C(O)C(Cl)Cl	-2.12
in O=CN1CCOCC1	-1.51
in O=Cc1ccco1	-1.8
in OC1CCCCC1	-2.46
in OCCO	-0.34
in OCCOCCO	-0.86
in OCCc1ccccc1	-2.12
in OCc1ccccc1	-2.06
in OCc1ccco1	-1.67
in S=C=S	-3.29
in c1ccc2ncccc2c1	-2.54
in c1ccccc1	-3.15
in c1ccncc1	-2.64

CC(C)=O
Conditions	solvation free energy, 298 K [kcal/mol]
in Brc1cccc2ccccc12	-3.32
in C1CCOC1	-3.89
in C1COCCO1	-3.87
in CC#N	-4.32
in CC(=O)N(C)C	-3.95
in CC(=O)OCc1ccccc1	-3.69
in CC(C)CC(C)(C)C	-2.44
in CC(C)CCCC(C)CCCC(C)CCCCC(C)CCCC(C)CCCC(C)C	-2.37
in CC(C)O	-3.36
in CC=O	-4.07
in CCC(C)=O	-3.98
in CCCCCC	-2.68
in CCCCCCC	-2.57
in CCCCCCCC	-2.53
in CCCCCCCCC=CCCCCCCCC(=O)OCC(COC(=O)CCCCCCCC=CCCCCCCCC)OC(=O)CCCCCCCC=CCCCCCCCC	-3.07
in CCCCCCCCCC	-2.46
in CCCCCCCCCCCCCCCC	-2.3
in CCCCCCCCO	-3.14
in CCCCCO	-3.4
in CCCCCl	-3.62
in CCCCN(C=O)CCCC	-3.55
in CCCCO	-3.51
in CCCCOCCCC	-3.04
in CCN1CCCC1=O	-3.77
in CCN(CC)C(C)=O	-3.82
in CCNC(C)=O	-3.56
in CCNC=O	-3.72
in CCO	-3.78
in CCOC(=O)c1ccccc1C(=O)OCC	-3.53
in CCOC(C)=O	-3.9
in CCOCC	-3.51
in CCOP(=O)(OCC)OCC	-3.64
in CI	-3.91
in CN1CCCC1=O	-3.94
in CN1CCCCC1=O	-3.82
in CN1CCN(C)C1=O	-3.61
in CN(C)C=O	-4.02
in CNC(C)=O	-3.67
in CNC=O	-3.82
in CO	-4.05
in COC(C)=O	-4.02
in COP(=O)(OC)OC	-3.97
in CS(C)=O	-3.67
in Cc1ccc(C)cc1	-3.39
in Cc1cccc(C)c1	-3.4
in Cc1ccccc1C	-3.36
in ClC(Cl)(Cl)Cl	-3.25
in ClC(Cl)Cl	-4.67
in ClCCCl	-4.27
in ClCCl	-4.62
in Clc1ccccc1	-3.63
in N#CCCOCCC#N	-3.86
in NC=O	-3.77
in O	-3.84
in O=C1CCCCC1	-3.8
in O=CN1CCOCC1	-3.66
in OCCOCCO	-3.32
in S=C=S	-3.39
in [2H]O[2H]	-3.82
in c1ccc2ncccc2c1	-3.62
in c1ccccc1	-3.79
